Results published in patent publication US10377778B2, “Lead and thorium compounds” (Sciencons AS, priority 2017, dated 2019).

What was measured:
[1] = Stability testing of ^212Pb-labeled ligands in vitro (TLC radiochemical purity in PBS and FBS); type: physicochemical; details: 37° C.
Protocol: Thin layer chromatography (TLC) was performed using chromatography strips (model #150-772, Biodex Medical Systems Inc, Shirley, N.Y., USA). A formulation buffer (FB) consisting of 7.5% human serum albumin and 5 mM EDTA in DPBS and adjusted to approximately pH 7 with NaOH was mixed with the antibody conjugates in ratio 2:1 for at least 5 minutes before application to the strips to determine free radionuclide. A small beaker with about 0.5 ml of 0.9% NaCl was used to place strips with a sample spot in. To the strip was typically added 1-4 μl of sample at approximately 10% above the bottom of the strip. After the solvent front had moved to about 20% from the top of the strip, the strip was cut in half and each half was placed in a 5 ml test tube for counting. In this system radiolabeled ligand stays at the bottom half while radionuclide complexed with EDTA migrates to the upper half. It was verified that free cations of both ^212Pb and ^177Lu would complex with EDTA and moved to the top.
TLC analyses were performed at 1 h, 4 h, 24 h and 48 h of incubation. […]

C4-2 cells = assay: Prostate cancer cell binding of ^212Pb-labeled ligands; parameters: species or system human; details: labeled with ^212Pb
Protocol: The cell binding fractions measured by adding about 1 ng of radioligand to 0.2 ml of C4-2 cells (5×10^7 cells per ml) in a 5 ml test tube and incubate for 1 h before measuring applied activity, wash cells 3 times with 0.5 ml 0.5% bovine serum albumin in DPBS and thereafter recount the washed cell pellet. […] Nonspecific binding was measured by blocking the cells with excess 10 μg/ml of unlabelled ligand before adding radioligand.

[2] = system: C4-2 PSMA-positive xenografts; assay: Biodistribution of radiolabelled ligands (^224Ra/^212Pb solutions, ^177Lu) in nude mice with C4-2 xenografts
Protocol: Each group usually consisted of three mice. […] Approximately 16 kBq of ^224Ra/^212Pb was injected in each animal, i.e., approximately 0.2 nmol of ligand per mouse. Animals were given anaesthesia and sacrificed by cervical dislocation followed by dissection and harvesting of tissue-, blood- and urine samples. The samples were weighed and counted on a gamma counter.
Three mice in each group. […] The molar concentration was the same for both products, i.e., 12.5 nmol per MBq. Approximately 16 kBq of ^224Ra/^212Pb was injected in each animal, i.e., approximately 0.2 nmol of ligand per mouse. Animals were given anaesthesia and sacrificed by cervical dislocation followed by dissection and harvesting of tissue-, blood- and urine samples. The samples were weighed and counted on a gamma counter.
Methods: Tumor and kidney uptake of ^212Pb-labeled p-SCN-Bn-TCMC-PSMA ligand 1 and ^177Lu-labeled PSMA-617 was compared at 1 hours and 4 hours after administration of the products by intravenous injection into nude mice with C4-2 xenografts as described in Example 9.

[3] = system: C4-2 PSMA positive human prostate cells xenografts; assay: Comparative therapy experiment in nude mice with C4-2 xenografts; type: in vivo; details: 52 MBq ^177Lu-PSMA-617 or 320 kBq ^212Pb-ligand 1
Protocol: Male nude mice were inoculated in the flanks with C4-2 PSMA positive human prostate cells and 2 weeks later when tumors were 5-7 mm in diameters. Groups of 8 animals each received saline, 52 MBq of ^177Lu-PSMA-617 or 320 kBq of ^212Pb-p-SCN-Bn-TCMC-PSMA ligand 1. Animals were sacrificed when tumor size reached 20 mm due to animal welfare requirements. […] For ^212Pb the effective half-life was assumed to be 10.6 h, 10% of injected dose per gram decays in tumor and 100% of radiation in a tumor is absorbed in the tumor, 100% retention of ^212Pb and daughters in the tumors and 8 MeV radiation energy per decay. The tumor dosimetry for the injected activities gave on average 35.9 Gy to tumors for ^177Lu-PSMA-617 and 2.06 Gy to tumors for ^212Pb-p-SCN-Bn-TCMC-PSMA ligand 1 groups respectively.

PC3 PIP model = details: mouse xenografts, model used by other researchers; cited from earlier work

With O=C(O)CCC(NC(=O)NC(CCCCNC(=O)C(Cc1ccc2ccccc2c1)NC(=O)C1CCC(CNC(=O)CN2CCN(CC(=O)O)CCN(CC(=O)O)CCN(CC(=O)O)CC2)CC1)C(=O)O)C(=O)O.[212Pb+2] (centres unmarked) [^212Pb-PSMA-617, reference compound] as the molecule, how does the Radiochemical purity ([1]; FBS, 1 h since start of incubation, in ^224Ra/^212Pb solution) read?
The Radiochemical purity was 92.13%.

And the Radiochemical purity ([1]; FBS, 4 h)?
Its Radiochemical purity is 94.37%.

What about the Radiochemical purity ([1]; FBS, 24 h) of the same molecule?
Its Radiochemical purity is 94.54%.

What about the Radiochemical purity ([1]; FBS, 48 h) of the same molecule?
Its Radiochemical purity is 95.65%.

And the Radiochemical purity ([1]; PBS, 1 h since start of incubation, in ^224Ra/^212Pb solution)?
Its Radiochemical purity is 91.62%.

And the Radiochemical purity ([1]; PBS, 4 h)?
The Radiochemical purity was 94.33%.

What about the Radiochemical purity ([1]; PBS, 24 h) of the same molecule?
Its Radiochemical purity is 93.26%.

And the Radiochemical purity ([1]; PBS, 48 h)?
The Radiochemical purity was 93.17%.

Which “Difference in cell-binding versus radiolabelled PSMA-617” value (C4-2 cells) does the source give for NC(=O)CN1CCN(CC(N)=O)CCN(CC(N)=O)C(Cc2ccc(NC(=S)NC[C@H]3CC[C@H](C(=O)N[C@@H](Cc4ccc5ccccc5c4)C(=O)NCCCC[C@H](NC(=O)N[C@@H](CCC(=O)O)C(=O)O)C(=O)O)CC3)cc2)CN(CC(N)=O)CC1 (stereo partly drawn) [p-SCN-Bn-TCMC-PSMA ligand 1, (((1S)-1-carboxy-5-((2S)-3-(naphthalen-2-yl)-2-((1r,4S)-4-((3-(4-((1,4,7,10-tetrakis(2-amino-2-oxoethyl)-1,4,7,10-tetraazacyclododecan-2-yl)methyl)phenyl)thioureido)methyl)cyclohexane-1-carboxamido)propanamido)pentyl)carbamoyl)-L-glutamic acid; trifloroacetic acid (1:4)] here?
The value was “No significant difference”.

With O=C([O-])CN1CCN(CC(=O)[O-])CCN(CC(=O)NCC2CCC(C(=O)N[C@@H](Cc3ccc4ccccc4c3)C(=O)NCCCC[C@H](NC(=O)N[C@@H](CCC(=O)O)C(=O)O)C(=O)O)CC2)CCN(CC(=O)[O-])CC1.[177Lu+3] (some centres unmarked) [^177Lu-PSMA-617, reference compound] as the molecule, how does the Average tumor-to-kidney ratio ([2]; 1-hour point after administration) read?
The Average tumor-to-kidney ratio was 0.17.

And the Tumor-to-kidney ratio ([2]; 4-hour timepoint)?
The Tumor-to-kidney ratio was 0.8.

And the “Kidney uptake (average)” value ([2]; 4 hours after i.v. injection)?
Its value is 17.4 % ID/g.

And the “Tumor uptake (average)” value ([2]; 4 hours after i.v. injection)?
Its value is 13.6 % ID/g.

And the “Typical PSMA-ligand uptake of the xenograft model used” value ([2]; mouse xenografts, tumor model with intermediary level of uptake)?
Its value is 10-15 % ID/g.

What about the “Survival at day 30 after treatment” value ([3]; groups of 8, saline group 0%) of the same molecule?
Its value is 12.5%.

And the Median survival ([3]; saline group 15 days)?
Its Median survival is 20 days.

And the “Typical uptake in PC3 PIP model” value (PC3 PIP model)?
Its value is 30-40 % ID/g.
